Measurements as given in publication PMC11459619, “Evaluating the amoeba thioredoxin reductase selenoprotein as potential drug target for treatment of Acanthamoeba infections” (International Journal for Parasitology: Drugs and Drug …, 2024).
Read-outs that look alike come from different tables or passages of the source.

Columns and labels:
AcTrxR-L [1] = test: Direct DTNB reduction assay; type: biochemical, Acanthamoeba castellanii
Procedure: Unless stated otherwise, all enzyme assays for AcTrxR-L were based upon well-established selenoprotein TrxR assays, as outlined earlier ([Arnér, 2018]). Kinetic parameters of AcTrxR-L were determined with different biochemical assays in triplicates in cuvettes as previously described ([Fata et al., 2022]). First, the specific activity of AcTrxR-L was calculated from its NADPH-dependent DTNB reduction. The reaction mixture contained 10 nM AcTrxR-L, 250 μM NADPH, and 2.5 mM DTNB in TE buffer (50 mM Tris and 2 mM EDTA, pH 7.5), and the reduction of DTNB was monitored by measuring the formation of the TNB^− anion at A412 nm on a spectrophotometer. Each DTNB is reduced into 2 molecules of TNB^− with extinction coefficient of 13,600 M^−1cm^−1 at 412 nm and the specific activity of the enzyme was calculated as Unit per mg (U/mg), with 1 U (μmol/min) defined as conversion of 1 μmol of DTNB substrate per minute.
Apparent Michaelis-Menten parameters were in all cases calculated based on the nonlinear fit of the velocity vs substrate concentration curves to the Michaelis-Menten equation by using GraphPad Prism.

AcTrxR-L [2] = target: T1, AcTrxR-L (Acanthamoeba castellanii, UniProt L8HG59); test: DTNB reduction at 412 nm (250 μM NADPH, 1 mM DTNB, TE buffer) after preincubation of 50 nM AcTrxR-L with inhibitor, 250 μM NADPH and 0.01 mg/ml BSA for 30 min (10 min in results), diluted 5-fold, without desalting.; type: biochemical; conditions: n = 2; read-out: IC50 (μM), Not desalted
T1 construct: gene ACA1_153040; recombinant selenoprotein from E. coli C321.ΔA (pABC2a, UAG as Sec codon, SECIS element); N-terminal His-SUMO removed with ULP1; homodimer with one FAD per subunit
T1 sequence (L8HG59 1-526): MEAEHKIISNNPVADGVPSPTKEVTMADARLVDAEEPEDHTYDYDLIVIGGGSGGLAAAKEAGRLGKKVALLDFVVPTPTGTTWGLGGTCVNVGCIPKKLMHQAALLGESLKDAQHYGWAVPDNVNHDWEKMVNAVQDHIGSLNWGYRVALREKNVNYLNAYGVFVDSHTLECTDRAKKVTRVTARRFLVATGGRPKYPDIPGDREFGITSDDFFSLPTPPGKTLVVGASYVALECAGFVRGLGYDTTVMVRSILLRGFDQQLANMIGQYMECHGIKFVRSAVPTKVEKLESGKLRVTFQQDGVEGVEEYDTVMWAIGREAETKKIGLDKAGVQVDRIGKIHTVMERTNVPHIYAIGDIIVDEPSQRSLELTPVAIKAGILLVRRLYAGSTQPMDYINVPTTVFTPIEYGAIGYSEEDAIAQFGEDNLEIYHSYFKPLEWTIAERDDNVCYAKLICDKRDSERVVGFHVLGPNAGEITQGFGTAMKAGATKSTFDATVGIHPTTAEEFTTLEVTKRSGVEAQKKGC
Procedure: (§1) Then, the reaction was diluted 5-fold and 200 μl was desalted using Zeba™ Spin Desalting Columns and Plates, 40K MWCO (Thermo Scientific, 87767), whereupon 100 μl of the reactions, either desalted or not desalted, were transferred to each well of a 96 well plate. Subsequently, 250 μM NADPH and 1 mM DTNB were added to each well. The TNB^− formation at A412 nm was followed by a spectrophotometer and experiments were carried out in duplicates. The IC50 values were determined based on the nonlinear regression (curve fit), dose-response-inhibitor equation, log (inhibitor) vs. normalized response (variable slope) using GraphPad Prism.

AcTrxR-L [3] = target: T1, AcTrxR-L; test: DTNB reduction at 412 nm (250 μM NADPH, 1 mM DTNB, TE buffer) after preincubation of 50 nM AcTrxR-L with inhibitor, 250 μM NADPH and 0.01 mg/ml BSA for 30 min (10 min in results), diluted 5-fold and desalted to remove free inhibitor.; type: biochemical; conditions: n = 2
Procedure: as §1

AcTrxR-L [4] = test: Inhibition of AcTrxR-L, direct DTNB reduction assay; type: biochemical, Acanthamoeba castellanii; conditions: for IC50: DTNB reduction; for Reversibility of AcTrxR-L inhibition after desalting: removal of compound from solution by desalting
Procedure: as §1, with “The reaction consisted of incubating 50 nM AcTrxR-L with 0.5–10 μM of auranofin, TRi-1 or TRi- 2, or 1% v/v DMSO, 250 μM NADPH and 0.01 mg/ml BSA in TE buffer for 30 min ([Fata et al., 2022]). Then,” for “Then,”

[5] = test system: Acanthamoeba strain Neff trophozoites; test: In vitro amoebicide assay, trypan blue direct counting; type: cell-based, Acanthamoeba castellanii
Procedure: Acanthamoeba castellanii strain Neff (ATCC® 30010™) genotype T4 was used for all experiments. The amoebae were grown in peptone yeast extract-glucose medium (PYG) in 75 cm^2 tissue culture flasks at 25 °C with weekly medium changes as described previously ([Köhsler et al., 2022]).
The amoebicidal activity was assessed by direct counting, using trypan blue ([Martín-Pérez et al., 2021]) and assayed in sterile 96-well microplates. Diverse drug concentrations (0–20 μM) were prepared via serial dilutions in DMSO, keeping total DMSO at 5% in the control well and in the drug solution wells ranging 5–3%. Amoebae from log-phase cultures (5 × 10^4 trophozoites/well) were inoculated into the microplates and the trophozoites were resuspended in PYG medium. Drug assays contained 100 μL of trophozoites solution, 90 μL of PYG media and 10 μL of the drug solution per well. The growth control (positive control) included 100 μL of trophozoites solution, 90 μL of PYG medium and 10 μL of DMSO. Each drug concentration and control were investigated in triplicates and each experiment was repeated in two independent setups. The plates were incubated at 25 °C during 4, 24, 48 and 72 h. Samples were placed in a Bürker-Türk counting chamber. The IC50 was calculated using GraphPad Prism, as explained previously.

[6] = test system: human corneal epithelial cells (HCECs); test: Cytotoxicity test on human corneal epithelial cells (CellTiter 96 AQueous One); type: cell-based; conditions: HCEC; for TD50 24 h: 24 h of treatment; for TD50 48 h: 48 h of treatment; for TD50 72 h: 72 h of treatment
Procedure: Cytotoxicity of the compounds towards human corneal epithelial cells (HCECs) (Innoprot, ref. P10871) was determined ([Loufouma Mbouaka et al., 2023]) in 96-well microplates. The HCECs (1 × 10^4 cells/well) were grown in 100 μL of corneal epithelial cell medium (CEpiCM) (Innoprot, ref. P60131) supplemented with 1% of corneal epithelial cell growth supplement (CEpiCGS), 2% of fetal bovine serum (FBS) and 1% antibiotic mix: 10,000 U penicillin, 10 mg streptomycin and 25 μg amphotericin B per milliliter. After overnight incubation, cytotoxicity was evaluated adding 20 μL of CellTiter 96® AQueous One Solution Reagent (Promega, Madison, WI, USA). After 1 h of incubation at 37 °C, the absorbance at 490 nm was read using a spectrophotometer (Tecan, Spark 10M, Switzerland).
The TD50 values were calculated using the same method as the IC50 values with GraphPad Prism. Moreover, the therapeutic index was determined as the ratio of TD50 to IC50 ([Muller and Milton, 2012]).

HCEC = test system: HCEC; set-up: method as in Martín-Pérez et al., 2019; conditions: ref Martín-Pérez et al., 2019; read-out: IC50 against HCEC; cited from earlier work
AcTrxR-S = test system: AcTrxR-S; set-up: method as in Leitsch et al., 2021; conditions: ref Leitsch et al., 2021; read-out: IC50 enzymatic activity of AcTrxR-S; cited from earlier work
[7] = test system: different strains of Acanthamoeba; conditions: ref Feng et al. (2020); read-out: IC50 against Acanthamoeba trophozoites; cited from earlier work
Schistosoma mansoni = test system: Schistosoma mansoni; set-up: method as in Kuntz et al., 2007; conditions: treatment of infected mice; ref Kuntz et al., 2007; cited from earlier work
[8] = substrate: O=C(O)c1cc(SSc2ccc([N+](=O)[O-])c(C(=O)O)c2)ccc1[N+](=O)[O-]; test: purified protein, by the assay type; conditions: pH 7.5
[9] = after removal of the inhibitors by desalting, read-out: IC50 Desalted
[10] = in presence of the inhibitors, 50 nM AcTrxR-L, read-out: IC50 Not desalted
[11] = 48 h of treatment, read-out: IC50 48 h
[12] = 72 h of treatment, read-out: IC50 72 h

## O=C(O)c1cc(SSc2ccc([N+](=O)[O-])c(C(=O)O)c2)ccc1[N+](=O)[O-] [DTNB]
AcTrxR-L [1]
  Km: 384 ± 63.7 µM
  Vmax: 238.1 ± 19.01 µmol/min/mg
  kcat: 79.37 s⁻¹

## CC[PH](CC)(CC)[Au][S][C@@H]1O[C@H](COC(C)=O)[C@@H](OC(C)=O)[C@H](OC(C)=O)[C@H]1OC(C)=O [Auranofin, auranofin (Ridaura), gold-based compound]
AcTrxR-L [2]
  IC50: 0.32 ± 0.39 µM
AcTrxR-L [3]
  IC50: 0.32 ± 0.55 µM

## COc1ccc([N+](=O)[O-])c(S(=O)(=O)c2ccc(Cl)cc2)n1 [TRi-1]
AcTrxR-L [4]; [9]
  IC50: 370 ± 110 nM
AcTrxR-L [4]; [10]
  IC50: 360 ± 70 nM
AcTrxR-L [4]
  Reversibility of AcTrxR-L inhibition after desalting: irreversibly inhibit the enzyme
[5]; 24 h of treatment, read-out: IC50 24 h
  IC50: 17700 ± 1640 nM
[5]; [11]
  IC50: 7650 ± 1710 nM
[5]; [12]
  IC50: 4290 ± 862 nM
[6]
  TD50 24 h: 8.84 ± 0.044 µM
  TD50 48 h: 8.40 ± 0.168 µM
  TD50 72 h: 8.40 ± 0.003 µM

## COc1ccc([N+](=O)[O-])c(S(=O)(=O)c2ccc(Cl)cc2)n1 [TRi-1, thioredoxin reductase inhibitor -1]
AcTrxR-L [2]
  IC50: 0.36 ± 0.07 µM
AcTrxR-L [3]
  IC50: 0.37 ± 0.11 µM

## [H]/N=C(\N/C(=N/[H])NCCCCCCNC(=N)NC(=N)Nc1ccc(Cl)cc1)Nc1ccc(Cl)cc1 [chlorhexidine]
HCEC
  IC50: 1580 nM

## thioredoxin reductase inhibitor -2 [TRi-2]
AcTrxR-L [2]
  IC50: > 10 µM
AcTrxR-L [3]
  IC50: > 10 µM

## CC(=O)OC[C@H]1O[C@@H]([S-])[C@H](OC(C)=O)[C@@H](OC(C)=O)[C@@H]1OC(C)=O.CCP(CC)CC.[Au+] [Auranofin, auranofin]
AcTrxR-L [4]; [9]
  IC50: 320 ± 550 nM
AcTrxR-L [4]; [10]
  IC50: 320 ± 390 nM
AcTrxR-L [4]
  Reversibility of AcTrxR-L inhibition after desalting: irreversibly inhibit the enzyme
[5]; [11]
  IC50: 21100 ± 11000 nM
[5]; [12]
  IC50: 5640 ± 1350 nM
[6]
  TD50 24 h: 2.79 ± 0.076 µM
  TD50 48 h: 1.18 ± 0.103 µM
  TD50 72 h: 0.97 ± 0.045 µM
AcTrxR-S
  IC50: 216 nM
[7]
  IC50: 5790 nM
Schistosoma mansoni
  Reduction of worm burden: 60%

B1: AcTrxR-L (Acanthamoeba castellanii str. Neff) (protein)
chain: MEAEHKIISNNPVADGVPSPTKEVTMADARLVDAEEPEDHTYDYDLIVIGGGSGGLAAAKEAGRLGKKVALLDFVVPTPTGTTWGLGGTCVNVGCIPKKLMHQAALLGESLKDAQHYGWAVPDNVNHDWEKMVNAVQDHIGSLNWGYRVALREKNVNYLNAYGVFVDSHTLECTDRAKKVTRVTARRFLVATGGRPKYPDIPGDREFGITSDDFFSLPTPPGKTLVVGASYVALECAGFVRGLGYDTTVMVRSILLRGFDQQLANMIGQYMECHGIKFVRSAVPTKVEKLESGKLRVTFQQDGVEGVEEYDTVMWAIGREAETKKIGLDKAGVQVDRIGKIHTVMERTNVPHIYAIGDIIVDEPSQRSLELTPVAIKAGILLVRRLYAGSTQPMDYINVPTTVFTPIEYGAIGYSEEDAIAQFGEDNLEIYHSYFKPLEWTIAERDDNVCYAKLICDKRDSERVVGFHVLGPNAGEITQGFGTAMKAGATKSTFDATVGIHPTTAEEFTTLEVTKRSGVEAQKKGC
[8]
  Km: 384.1 ± 63.74 µM
  Vmax: 238 µmol/min/mg
  kcat: 79.4 s⁻¹
  kcat/Km: 200000 M⁻¹ s⁻¹
